Assay results from patent publication US6150385A, “1,3,4-thiadiazoles useful for the treatment of CMV infections” (Pharmacia & Upjohn Company, priority 1999, dated 2000).

molecular target: T1, HCMV polymerase (Human cytomegalovirus, UniProt P08546); test: HCMV polymerase assay (scintillation proximity assay); type: biochemical; settings: percentage of inhibition at 25 μM concentration in CMV polymerase assay
T1 construct: made in house; host or cells: SF-9 insect cells infected with recombinant baculovirus
Outline: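 Values are percent inhibition at 25 μM, measured by scintillation proximity after capture of biotinylated poly(dA)-oligo(dT) (6 nM) extended with 90 nM 3H-dTTP. Recombinant SF-9-derived enzyme reacted 30 min at 25 or 37 °C in HEPES pH 7.5/KCl/MgCl2/BSA buffer, ±2 mM CHAPS, before EDTA termination.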

T1 sequence (P08546 whole entry): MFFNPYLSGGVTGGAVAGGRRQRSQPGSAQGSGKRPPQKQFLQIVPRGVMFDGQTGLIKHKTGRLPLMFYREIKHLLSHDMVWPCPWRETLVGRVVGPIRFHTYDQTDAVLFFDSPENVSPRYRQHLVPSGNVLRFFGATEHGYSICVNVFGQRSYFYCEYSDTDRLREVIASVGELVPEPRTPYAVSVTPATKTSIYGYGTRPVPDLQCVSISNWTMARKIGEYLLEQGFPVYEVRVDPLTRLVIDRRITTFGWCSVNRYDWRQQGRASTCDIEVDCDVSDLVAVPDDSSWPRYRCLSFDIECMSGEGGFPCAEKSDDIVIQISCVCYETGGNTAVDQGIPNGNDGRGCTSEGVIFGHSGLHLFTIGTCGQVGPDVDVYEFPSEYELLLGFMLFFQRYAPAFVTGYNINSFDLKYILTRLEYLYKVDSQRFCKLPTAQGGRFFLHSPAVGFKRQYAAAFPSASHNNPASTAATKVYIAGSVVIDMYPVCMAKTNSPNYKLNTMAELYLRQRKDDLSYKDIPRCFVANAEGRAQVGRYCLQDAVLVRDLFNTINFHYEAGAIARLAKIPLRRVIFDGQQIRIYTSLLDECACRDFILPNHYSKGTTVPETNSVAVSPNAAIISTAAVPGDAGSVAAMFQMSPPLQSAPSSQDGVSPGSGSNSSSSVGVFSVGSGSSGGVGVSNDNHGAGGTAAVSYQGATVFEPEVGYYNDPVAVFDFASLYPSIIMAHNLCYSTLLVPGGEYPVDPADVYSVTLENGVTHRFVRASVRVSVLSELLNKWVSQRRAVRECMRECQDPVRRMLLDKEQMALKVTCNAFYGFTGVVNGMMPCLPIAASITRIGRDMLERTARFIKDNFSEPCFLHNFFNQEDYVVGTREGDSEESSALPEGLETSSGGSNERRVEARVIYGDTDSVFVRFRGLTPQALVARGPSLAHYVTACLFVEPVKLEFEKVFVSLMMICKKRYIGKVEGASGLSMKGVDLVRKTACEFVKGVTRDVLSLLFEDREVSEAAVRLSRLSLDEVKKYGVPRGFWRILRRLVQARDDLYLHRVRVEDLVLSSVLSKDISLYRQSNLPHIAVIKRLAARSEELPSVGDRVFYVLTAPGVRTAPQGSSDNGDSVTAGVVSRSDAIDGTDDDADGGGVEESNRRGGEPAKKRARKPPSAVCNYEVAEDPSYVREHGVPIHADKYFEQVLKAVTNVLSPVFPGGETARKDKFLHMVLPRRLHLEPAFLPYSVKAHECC

First: N#Cc1ccc(C(=O)Nc2nnc(NCc3ccc(Cl)c(Cl)c3)s2)cc1 [compound 140, 4-cyano-N-{5-[(3,4-dichlorobenzyl)amino]-1,3,4-thiadiazol-2-yl}benzamide]
Second: N#Cc1ccc(C(=O)Nc2nnc(NCc3cccc4ccccc34)s2)cc1 [compound 155, 4-cyano-N-{5-[(1-naphthylmethyl)amino]-1,3,4-thiadiazol-2-yl}benzamide]
The inhibition at 25 µM of the first is higher: 56.2% for the first, 53.3% for the second.

Compared with CCOc1ccc2ccccc2c1C(=O)Nc1nnc(NCCc2c[nH]c3ccccc23)s1 [compound 141, 2-ethoxy-N-(5-{[2-(1H-indol-3-yl)ethyl]amino}-1,3,4-thiadiazol-2-yl)-1-naphthamide], O=C(/C=C/c1ccccc1)Nc1nnc(NCCc2c[nH]c3ccccc23)s1 [compound 153, (E)-N-(5-{[2-(1H-indol-3-yl)ethyl]amino}-1,3,4-thiadiazol-2-yl)-3-phenyl-2-propenamide] is lower in inhibition at 25 µM: 55.7% for the first, 53.7% for the second.

First: NS(=O)(=O)c1ccc(CCNc2nnc(NC(=O)c3ccc(Cl)c(Cl)c3)s2)cc1 [compound 142, N-(5-{[4-(aminosulfonyl)phenethyl]amino}-1,3,4-thiadiazol-2-yl)-3,4-dichlorobenzamide]
Second: NS(=O)(=O)c1ccc(CCNc2nnc(NC(=O)c3ccc(Br)cc3)s2)cc1 [compound 152, N-(5-{[4-(aminosulfonyl)phenethyl]amino}-1,3,4-thiadiazol-2-yl)-4-bromobenzamide]
The inhibition at 25 µM of the first is higher: 55.4% for the first, 53.9% for the second.

Going from N#Cc1ccc(C(=O)Nc2nnc(NCCCCc3ccccc3)s2)cc1 [compound 143, 4-cyano-N-{5-[(4-phenylbutyl)amino]-1,3,4-thiadiazol-2-yl}benzamide] to O=C(Nc1nnc(NCCCCc2ccccc2)s1)c1ccc(Br)cc1 [compound 170, 4-bromo-N-{5-[(4-phenylbutyl)amino]-1,3,4-thiadiazol-2-yl}benzamide], the inhibition at 25 µM falls from 55.4% to 50.5%.

First: O=C(Nc1nnc(NCc2ccc(F)cc2)s1)c1c(Cl)cccc1Cl [compound 144, 2,6-dichloro-N-{5-[(4-fluorobenzyl)amino]-1,3,4-thiadiazol-2-yl}benzamide]
Second: O=C(Nc1nnc(NCc2cccnc2)s1)c1c(Cl)cccc1Cl [compound 156, 2,6-dichloro-N-{5-[(3-pyridinylmethyl)amino]-1,3,4-thiadiazol-2-yl}benzamide]
The inhibition at 25 µM of the first is higher: 55.2% for the first, 53.2% for the second.

First: CCCCCCCCCCCNc1nnc(NC(=O)c2c(OCC)ccc3ccccc23)s1 [compound 145, 2-ethoxy-N-[5-(undecylamino)-1,3,4-thiadiazol-2-yl]-1-naphthamide]
Second: CCCCCCCCCCCNc1nnc(NC(=O)c2ccc(C)cc2)s1 [compound 167, 4-methyl-N-[5-(undecylamino)-1,3,4-thiadiazol-2-yl]benzamide]
The inhibition at 25 µM of the first is higher: 54.9% for the first, 50.8% for the second.

First: N#CCCNc1nnc(NC(=O)c2c(Cl)cccc2Cl)s1 [compound 146, 2,6-dichloro-N-{5-[(2-cyanoethyl)amino]-1,3,4-thiadiazol-2-yl}benzamide]
Second: O=C(Nc1nnc(NCc2ccco2)s1)c1c(Cl)cccc1Cl [compound 174, 2,6-dichloro-N-{5-[(2-furylmethyl)amino]-1,3,4-thiadiazol-2-yl}benzamide]
The inhibition at 25 µM of the first is higher: 54.8% for the first, 49.5% for the second.

Going from CCCCCCCCCCCNc1nnc(NC(=O)c2ccc(I)cc2)s1 [compound 147, 4-iodo-N-[5-(undecylamino)-1,3,4-thiadiazol-2-yl]benzamide] to CCCCCCCCCCCNc1nnc(NC(=O)c2cc(F)cc(F)c2)s1 [compound 175, 3,5-difluoro-N-[5-(undecylamino)-1,3,4-thiadiazol-2-yl]benzamide], the inhibition at 25 µM falls from 54.7% to 49.4%.

Compared with CCSCCNc1nnc(NC(=O)c2ccc(I)cc2)s1 [compound 148, N-(5-{[2-(ethylsulfanyl)ethyl]amino}-1,3,4-thiadiazol-2-yl)-4-iodobenzamide], O=C(Nc1nnc(NCCSc2ccccc2)s1)c1ccc(Br)cc1 [compound 163, 4-bromo-N-(5-{[2-(phenylsulfanyl)ethyl]amino}-1,3,4-thiadiazol-2-yl)benzamide] is lower in inhibition at 25 µM: 54.6% for the first, 51.5% for the second.

Going from CCCCCCCC/C=C/CCCCCCCC(=O)Nc1nnc(NCCc2c[nH]c3ccccc23)s1 [compound 149, (E)-N-(5-{[2-(1H-indol-3-yl)ethyl]amino}-1,3,4-thiadiazol-2-yl)-9-octadecenamide] to CCCCCCCC/C=C/CCCCCCCC(=O)Nc1nnc(NCCNc2ccccc2)s1 [compound 179, (E)-N-{5-[(2-anilinoethyl)amino]-1,3,4-thiadiazol-2-yl}-9-octadecenamide], the inhibition at 25 µM falls from 54.5% to 48.5%.

Going from O=C(Nc1nnc(NCCCN2CCCC2=O)s1)c1cc2ccccc2s1 [compound 150, N-(5-{[3-(2-oxo-1-pyrrolidinyl)propyl]amino}-1,3,4-thiadiazol-2-yl)-1-benzothiophene-2-carboxamide] to N#Cc1ccc(C(=O)Nc2nnc(NCCCN3CCCC3=O)s2)cc1 [compound 158, 4-cyano-N-(5-{[3-(2-oxo-1-pyrrolidinyl)propyl]amino}-1,3,4-thiadiazol-2-yl)benzamide], the inhibition at 25 µM falls from 54.5% to 52.9%.

Going from O=C(Nc1nnc(NC2CCN(Cc3ccccc3)CC2)s1)c1c(Cl)cccc1Cl [compound 151, N-{5-[(1-benzyl-4-piperidinyl)amino]-1,3,4-thiadiazol-2-yl}-2,6-dichlorobenzamide] to O=C(Nc1nnc(NCCCCc2ccccc2)s1)c1ccc(Cl)c(Cl)c1 [compound 168, 3,4-dichloro-N-{5-[(4-phenylbutyl)amino]-1,3,4-thiadiazol-2-yl}benzamide], the inhibition at 25 µM falls from 54% to 50.8%.

First: O=C(/C=C/c1ccccc1Cl)Nc1nnc(NCC(c2ccccc2)c2ccccc2)s1 [compound 154, (E)-3-(2-chlorophenyl)-N-{5-[(2,2-diphenylethyl)amino]-1,3,4-thiadiazol-2-yl}-2-propenamide]
Second: O=C(/C=C/c1ccccc1Cl)Nc1nnc(NCc2ccccn2)s1 [compound 161, (E)-3-(2-chlorophenyl)-N-{5-[(2-pyridinylmethyl)amino]-1,3,4-thiadiazol-2-yl}-2-propenamide]
The inhibition at 25 µM of the first is higher: 53.6% for the first, 51.9% for the second.

First: CCOc1ccc2ccccc2c1C(=O)Nc1nnc(NC2CCCCCC2)s1 [compound 157, N-[5-(cycloheptylamino)-1,3,4-thiadiazol-2-yl]-2-ethoxy-1-naphthamide]
Second: CCOc1ccc2ccccc2c1C(=O)Nc1nnc(NCC2CC2)s1 [compound 177, N-{5-[(cyclopropylmethyl)amino]-1,3,4-thiadiazol-2-yl}-2-ethoxy-1-naphthamide]
The inhibition at 25 µM of the first is higher: 53% for the first, 49% for the second.

Compared with O=C(Nc1nnc(NCCCNC2CCCCC2)s1)c1ccc(Br)cc1 [compound 159, 4-bromo-N-(5-{[3-(cyclohexylamino)propyl]amino}-1,3,4-thiadiazol-2-yl)benzamide], Cc1ccc(C(=O)Nc2nnc(NCCCNC3CCCCC3)s2)cc1 [compound 162, N-(5-{[3-(cyclohexylamino)propyl]amino}-1,3,4-thiadiazol-2-yl)-4-methylbenzamide] is lower in inhibition at 25 µM: 52.8% for the first, 51.8% for the second.

First: O=C(Nc1nnc(NCCCNC2CCCCC2)s1)c1ccc(F)cc1F [compound 160, N-(5-{[3-(cyclohexylamino)propyl]amino}-1,3,4-thiadiazol-2-yl)-2,4-difluorobenzamide]
Second: O=C(Nc1nnc(NCCCNC2CCCCC2)s1)c1ccc(Cl)c(Cl)c1 [compound 172, 3,4-dichloro-N-(5-{[3-(cyclohexylamino)propyl]amino}-1,3,4-thiadiazol-2-yl)benzamide]
The inhibition at 25 µM of the first is higher: 52.6% for the first, 49.7% for the second.

Going from O=C(/C=C/c1ccccc1Cl)Nc1nnc(NCc2cccs2)s1 [compound 164, (E)-3-(2-chlorophenyl)-N-{5-[(2-thienylmethyl)amino]-1,3,4-thiadiazol-2-yl}-2-propenamide] to O=C(/C=C/c1ccccc1)Nc1nnc(NCc2ccc3c(c2)OCO3)s1 [compound 178, (E)-N-{5-[(1,3-benzodioxol-5-ylmethyl)amino]-1,3,4-thiadiazol-2-yl}-3-phenyl-2-propenamide], the inhibition at 25 µM falls from 51.4% to 49%.

Going from O=C(CCCCCl)Nc1nnc(NCc2ccc3c(c2)OCO3)s1 [compound 165, N-{5-[(1,3-benzodioxol-5-ylmethyl)amino]-1,3,4-thiadiazol-2-yl}-5-chloropentanamide] to O=C(Nc1nnc(NCc2ccc3c(c2)OCO3)s1)c1cc2ccccc2s1 [compound 180, N-{5-[(1,3-benzodioxol-5-ylmethyl)amino]-1,3,4-thiadiazol-2-yl}-1-benzothiophene-2-carboxamide], the inhibition at 25 µM falls from 51.3% to 48.4%.

Going from CCCCCCCC/C=C/CCCCCCCC(=O)Nc1nnc(NC[C@@H]2CCC3CC2C3(C)C)s1 (stereo partly drawn) [compound 166, (E)-N-[5-({[(2R)-6,6-dimethylbicyclo[3.1.1]hept-2-yl]methyl}amino)-1,3,4-thiadiazol-2-yl]-9-octadecenamide] to CCCCCCCC/C=C/CCCCCCCC(=O)Nc1nnc(NCc2ccccn2)s1 [compound 171, (E)-N-{5-[(2-pyridinylmethyl)amino]-1,3,4-thiadiazol-2-yl}-9-octadecenamide], the inhibition at 25 µM falls from 51.1% to 49.9%.

First: CC(C)c1cc(C(C)C)c(C(=O)Nc2nnc(NCCN3CCCC3)s2)c(C(C)C)c1 [compound 169, 2,4,6-triisopropyl-N-(5-{[2-(1-pyrrolidinyl)ethyl]amino}-1,3,4-thiadiazol-2-yl)benzamide]
Second: CC(C)c1cc(C(C)C)c(C(=O)Nc2nnc(NCc3cccc4ccccc34)s2)c(C(C)C)c1 [compound 173, 2,4,6-triisopropyl-N-{5-[(1-naphthylmethyl)amino]-1,3,4-thiadiazol-2-yl}benzamide]
The inhibition at 25 µM of the first is higher: 50.7% for the first, 49.5% for the second.

With CC(C)c1cc(C(C)C)c(C(=O)Nc2nnc(NCC(c3ccccc3)c3ccccc3)s2)c(C(C)C)c1 [compound 176, N-{5-[(2,2-diphenylethyl)amino]-1,3,4-thiadiazol-2-yl}-2,4,6-triisopropylbenzamide] the inhibition at 25 µM was 49.4%.
